The assay deals with T1, ΔF508-CFTR (Homo sapiens, UniProt P13569, DEL508-508).
T1 construct: expressed in transfected cells; host or cells: NIH3T3 mouse fibroblasts (optical membrane potential assay, whole-cell and single-channel recordings); Fisher rat epithelial (FRT) cells (Ussing chamber)
The experiment in a line: Assays for detecting and measuring ΔF508-CFTR correction properties (membrane potential optical assay; electrophysiological assays). The assay is classed as cell-based. The text has this: Assays for Detecting and Measuring ΔF508-CFTR Correction Properties of Compounds
Membrane potential optical methods for assaying ΔF508-CFTR modulation properties of compounds.
The optical membrane potential assay utilized voltage-sensitive FRET sensors described by Gonzalez and Tsien (See Gonzalez, J. E. and R. Y. Tsien (1995) “Voltage sensing by fluorescence resonance energy transfer in single cells” Biophys J 69(4): 1272-80, and Gonzalez, J. E. and R. Y. Tsien (1997) “Improved indicators of cell membrane potential that use fluorescence resonance energy transfer” Chem Biol 4(4): 269-77) in combination with instrumentation for measuring fluorescence changes such as the Voltage/Ion Probe Reader (VIPR) (See, Gonzalez, J. E., K. Oades, et al. (1999) “Cell-based assays and instrumentation for screening ion-channel targets” Drug Discov Today 4(9): 431-439).
These voltage sensitive assays are based on the change in fluorescence resonant energy transfer (FRET) between the membrane-soluble, voltage-sensitive dye, DiSBAC2(3), and a fluorescent phospholipid, CC2-DMPE, which is attached to the outer leaflet of the plasma membrane and acts as a FRET donor. […] The changes in fluorescence emission were monitored using VIPR™ II, which is an integrated liquid handler and fluorescent detector designed to conduct cell-based screens in 96- or 384-well microtiter plates. […]

T1 sequence (P13569 with tags, fused parts or gaps DEL508-508): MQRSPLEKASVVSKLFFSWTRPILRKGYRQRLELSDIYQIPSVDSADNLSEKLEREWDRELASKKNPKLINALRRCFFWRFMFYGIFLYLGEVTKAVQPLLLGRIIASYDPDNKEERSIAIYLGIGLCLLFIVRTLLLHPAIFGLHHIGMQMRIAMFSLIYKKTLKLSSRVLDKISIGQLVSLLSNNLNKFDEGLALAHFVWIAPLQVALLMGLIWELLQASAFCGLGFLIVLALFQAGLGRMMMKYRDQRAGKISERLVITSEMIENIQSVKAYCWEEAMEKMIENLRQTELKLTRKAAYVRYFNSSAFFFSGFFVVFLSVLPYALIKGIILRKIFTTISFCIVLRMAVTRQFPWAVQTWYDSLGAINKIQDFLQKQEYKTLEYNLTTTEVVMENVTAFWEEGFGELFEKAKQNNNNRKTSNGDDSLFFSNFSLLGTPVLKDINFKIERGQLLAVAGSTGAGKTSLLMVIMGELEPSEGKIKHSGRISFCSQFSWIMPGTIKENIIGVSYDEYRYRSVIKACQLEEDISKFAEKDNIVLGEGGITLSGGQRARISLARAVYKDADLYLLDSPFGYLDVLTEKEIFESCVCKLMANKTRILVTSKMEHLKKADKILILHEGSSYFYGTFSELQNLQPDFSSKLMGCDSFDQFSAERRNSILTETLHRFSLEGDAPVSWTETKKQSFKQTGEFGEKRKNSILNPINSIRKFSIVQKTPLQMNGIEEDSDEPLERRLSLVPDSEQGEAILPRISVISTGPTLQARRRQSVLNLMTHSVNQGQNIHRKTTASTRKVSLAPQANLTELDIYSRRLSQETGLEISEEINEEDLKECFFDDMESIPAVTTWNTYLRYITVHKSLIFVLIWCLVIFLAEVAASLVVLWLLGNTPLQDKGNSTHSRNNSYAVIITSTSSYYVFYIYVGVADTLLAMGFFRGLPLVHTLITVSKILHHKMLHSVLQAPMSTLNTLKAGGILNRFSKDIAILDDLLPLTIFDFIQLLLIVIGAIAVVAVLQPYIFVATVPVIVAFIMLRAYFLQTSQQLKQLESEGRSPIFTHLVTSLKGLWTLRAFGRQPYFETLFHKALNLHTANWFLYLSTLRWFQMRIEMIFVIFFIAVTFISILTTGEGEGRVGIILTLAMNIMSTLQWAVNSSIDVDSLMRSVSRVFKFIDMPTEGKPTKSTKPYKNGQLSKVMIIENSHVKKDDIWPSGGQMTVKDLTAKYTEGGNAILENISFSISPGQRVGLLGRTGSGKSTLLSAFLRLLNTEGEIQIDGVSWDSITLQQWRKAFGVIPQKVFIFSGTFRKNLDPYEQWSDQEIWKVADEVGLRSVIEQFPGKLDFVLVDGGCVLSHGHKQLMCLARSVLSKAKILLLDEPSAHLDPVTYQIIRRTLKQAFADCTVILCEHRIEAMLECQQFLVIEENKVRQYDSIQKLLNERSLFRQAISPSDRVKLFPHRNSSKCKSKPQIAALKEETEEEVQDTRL

As to `CC(C)(CO)c1cc2cc(NC(=O)C3(c4ccc5c(c4)OC(F)(F)O5)CC3)c(F)cc2n1C[C@@H](O)CO` [Compound 1, (R)-1-(2,2-difluorobenzo[d][1,3]dioxol-5-yl)-N-(1-(2,3-dihydroxypropyl)-6-fluoro-2-(1-hydroxy-2-methylpropan-2-yl)-1H-indol-5-yl)cyclopropanecarboxamide], the EC50 (NIH3T3 mouse fibroblasts stably expressing ΔF508-CFTR, read-out: BinnedEC50) is at most 2000 nM. Besides, under “PercentActivity bins”, the BinnedMaxEfficacy result was “+++ (100.0 < +++)”.

The values are drawn from patent US9012496B2, “Pharmaceutical compositions of (R)-1-(2,2-difluorobenzo[D][1,3]dioxol-5-yl)-N-(1-(2,3-dihydroxypropyl)-6-fluoro-2-(1-hydroxy-2-methylpropan-2-yl)-1H-indol-5-yl)cyclopropanecarboxamide and administration thereof” (Vertex Pharmaceuticals Incorported, priority 2012, dated 2015).
